Results reported in publication PMC10316653 (iScience, 2023).
Like-named read-outs stand apart in the source and are kept apart here.

Experiments:
A1AR = molecular target: T1, A1AR (Rattus norvegicus, UniProt P25099); experiment: A1AR-mediated inhibition of forskolin-stimulated cAMP accumulation in H9C2 cells; assay type: cell-based
T1 sequence (P25099 1-326): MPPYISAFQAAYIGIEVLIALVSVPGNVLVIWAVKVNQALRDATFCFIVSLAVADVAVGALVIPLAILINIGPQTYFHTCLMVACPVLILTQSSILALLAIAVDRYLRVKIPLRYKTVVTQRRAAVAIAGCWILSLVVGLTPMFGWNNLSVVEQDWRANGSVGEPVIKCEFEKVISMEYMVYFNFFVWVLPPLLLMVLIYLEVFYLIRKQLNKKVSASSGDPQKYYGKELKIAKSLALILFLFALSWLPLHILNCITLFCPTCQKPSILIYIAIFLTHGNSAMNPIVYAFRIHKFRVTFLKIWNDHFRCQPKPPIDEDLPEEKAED

A2BAR [1] = molecular target: T2, A2BAR (Homo sapiens, UniProt P29275); experiment: cAMP accumulation assay in naive HEK293 cells; assay type: cell-based; details: for effect on PKC (PMA)-induced enhancement of BAY-induced cAMP accumulation: PMA 1 μM, BAY 10 μM
T2 sequence (P29275 1-332): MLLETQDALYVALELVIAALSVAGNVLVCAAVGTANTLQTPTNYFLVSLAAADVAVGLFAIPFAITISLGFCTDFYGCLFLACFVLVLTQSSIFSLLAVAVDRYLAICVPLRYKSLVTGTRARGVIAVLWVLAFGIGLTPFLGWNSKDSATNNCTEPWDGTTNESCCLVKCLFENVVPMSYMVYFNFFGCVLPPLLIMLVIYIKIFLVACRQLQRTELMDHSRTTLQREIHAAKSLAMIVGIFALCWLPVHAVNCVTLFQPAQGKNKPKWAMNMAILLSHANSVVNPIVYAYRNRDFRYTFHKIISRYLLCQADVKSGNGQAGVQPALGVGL

A2BAR [2] = molecular target: T2, A2BAR; experiment: cAMP accumulation assay in HEK293-A2B cells; assay type: cell-based
PKCα = details: reported selectivity profile, ref not given; cited from earlier work
PKCβI = details: reported selectivity profile, ref not given; cited from earlier work
PKCβ2 = details: reported selectivity profile, ref not given; cited from earlier work
PKCγ = details: reported selectivity profile, ref not given; cited from earlier work
A2BAR [3] = molecular target: T3, A2BAR (Rattus norvegicus, UniProt P29276); experiment: cAMP accumulation assay in H9C2 cells endogenously expressing the A2BAR; assay type: cell-based
T3 sequence (P29276 1-332): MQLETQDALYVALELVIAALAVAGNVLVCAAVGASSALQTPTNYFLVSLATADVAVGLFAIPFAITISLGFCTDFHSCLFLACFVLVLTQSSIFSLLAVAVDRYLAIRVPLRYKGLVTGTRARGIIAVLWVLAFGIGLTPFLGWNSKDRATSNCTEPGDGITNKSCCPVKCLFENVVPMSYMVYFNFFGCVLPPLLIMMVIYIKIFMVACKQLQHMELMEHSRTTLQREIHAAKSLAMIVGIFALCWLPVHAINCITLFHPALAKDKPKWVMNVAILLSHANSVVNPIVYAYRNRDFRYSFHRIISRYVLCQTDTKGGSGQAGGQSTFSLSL

ERK1/2 = ERK1/2 activity assay in H9C2 cells; assay type: cell-based, rat; details: PMA 1 μM, sustained over 30 min
A2BAR [4] = molecular target: T2, A2BAR; experiment: Radioligand binding to membranes from HEK293-A2B cells
H9C2 cells = experiment: Intracellular calcium mobilization assay in H9C2 cells; assay type: cell-based, rat; details: 1 μM pretreatment 20 min
A2BAR [5] = molecular target: T2, A2BAR; experiment: Intracellular calcium mobilization assay in HEK293-A2B cells; assay type: cell-based
A2BAR [6] = molecular target: T4, A2BAR (Mus musculus, UniProt Q60614); experiment: cAMP accumulation in NIH3T3 cells endogenously expressing the A2BAR; assay type: cell-based; details: 20 min
T4 sequence (Q60614 1-332): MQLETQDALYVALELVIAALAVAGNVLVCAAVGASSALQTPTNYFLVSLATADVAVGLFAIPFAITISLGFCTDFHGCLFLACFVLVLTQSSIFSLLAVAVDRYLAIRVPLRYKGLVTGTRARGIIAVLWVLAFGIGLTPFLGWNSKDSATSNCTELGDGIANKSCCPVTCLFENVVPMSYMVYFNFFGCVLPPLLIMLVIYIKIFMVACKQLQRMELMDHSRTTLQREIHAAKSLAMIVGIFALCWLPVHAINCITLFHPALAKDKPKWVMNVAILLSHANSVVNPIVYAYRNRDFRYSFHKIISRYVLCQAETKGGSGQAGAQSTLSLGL

recombinant rat A2BAR = molecular target: T5, recombinant rat A2BAR (Rattus norvegicus, UniProt P29276); experiment: cAMP accumulation in H9C2 cells expressing the recombinant rat A2BAR; assay type: cell-based; details: H9C2 cells with rat A2BAR expression, 0.3 μg/well
T5 sequence (P29276 1-332): T3 sequence (P29276 1-332)

A2BAR [7] = molecular target: T2, A2BAR; assay type: cell-based
A2BAR [8] = molecular target: T2, A2BAR; experiment: cAMP accumulation in Gi-null HEK293 cells; assay type: cell-based; details: PMA 1 μM 40 min
A2BAR [9] = molecular target: T2, A2BAR; experiment: cAMP accumulation in Gi-null HEK293-A2B cells; assay type: cell-based; details: read-out: Emax of cAMP accumulation (10 μM forskolin in HEK293-A2B = 100%)
adenylyl cyclase = experiment: Forskolin-stimulated cAMP accumulation in H9C2 cells; assay type: cell-based, rat; details: PMA 1 μM 40 min, forskolin 10 μM
PKCθ = details: reported selectivity profile, ref not given; cited from earlier work
PKCδ = details: reported selectivity profile, ref not given; cited from earlier work
PKCβ = details: reported selectivity profile, ref not given; cited from earlier work
[10] = naive HEK293 cells, inhibitor 1 μM
[11] = HEK293-A2B cells, inhibitor 30 nM
[12] = naive HEK293 cells, inhibitor 30 nM
[13] = HEK293-A2B cells treated with PMA 1 μM 40 min

In the case of `OC1C(CCl)OC(n2cnc3c(NC4CC5CCC4C5)ncnc32)C1O` (stereo not drawn) [Cl-ENBA], the “inhibited cAMP accumulation stimulated by forskolin” value (A1AR; 1 μM, forskolin 10 μM) is reported as “neither” and the “inhibition of forskolin's effect on cAMP” value (A1AR; range of concentrations (Figure S1)) is reported as “unable to inhibit forskolin’s effect”.
In the case of `Cn1c2ccccc2c2c3c(c4c5ccccc5n(CCC#N)c4c21)CNC3=O` [GO6976], the “effect on PKC (PMA)-induced enhancement of BAY-induced cAMP accumulation” value (“effect on PKC (PMA)-induced enhancement” below) (A2BAR [1]; [10]) is given as “modest but significant inhibition”, the “effect on PKC-induced A2BAR activation (cAMP)” value (shortened to “effect … (cAMP)”) (A2BAR [2]; [11]) is given as “lack of inhibition” and the IC50 (PKCα) is given as 2.3 nM. For the same compound, the IC50 (PKCβI) was 6.2 nM.
For `CN(C)C[C@@H]1CCn2cc(c3ccccc32)C2=C(C(=O)NC2=O)c2cn(c3ccccc23)CCO1` [LY333531], the “effect on PKC (PMA)-induced enhancement” value (A2BAR [1]; [12]) was “did not inhibit PMA-induced enhancement”, the “effect … (cAMP)” value (A2BAR [2]; [11]) was “lack of inhibition” and the “effect … (cAMP)” value (A2BAR [2]; HEK293-A2B cells, inhibitor 1 μM) was “significant inhibition”. The IC50 (PKCβI) was 5 nM, the IC50 (PKCβ2) was […] and the IC50 (PKCγ) was […].
For `CCCCCCCCCCCCCC(=O)O[C@@H]1[C@@H](C)[C@@]2(O)[C@@H](C=C(CO)C[C@]3(O)C(=O)C(C)=C[C@@H]23)[C@@H]2C(C)(C)[C@]12OC(C)=O` [PMA, phorbol 12-myristate 13-acetate], the “enhancement of A2BAR agonist-induced cAMP accumulation” value (A2BAR [3]; H9C2 cells, PMA 1 nM pretreatment 40 min) was 25%, the “Emax of cAMP accumulation relative to NECA” value (A2BAR [3]; naive H9C2 cells, 5 min (Figure S10)) was “about 20 % of NECA” and the “maximal cAMP level (10 μM NECA = 100%)” value (A2BAR [3]; naive H9C2 cells, 20 min (Figure 7C)) was 20.0 ± 0.36%. For the same compound, the EC50 (A2BAR [3]; potency of enhancing effect on A2BAR-mediated cAMP accumulation, H9C2 cells) was ~1 nM, the Emax (A2BAR [1]; HEK293, read-out: maximal stimulation relative to Emax of NECA) was < 10% and the “maximal agonist effect (10 μM NECA = 100%)” value (A2BAR [1]; naive HEK293 cells, 20 min (Figure 7D)) was 7.36 ± 1.08%. The “enhancement of the function of BAY (cAMP accumulation)” value (A2BAR [1]; wild-type HEK293 cells, PMA 1 μM 40 min) was 95%, the EC50 (A2BAR [2]; EC50, cAMP accumulation, HEK293-A2B cells, incubated 60 min) was 56.4 nM and the “effect of pretreatment on NECA- or BAY-induced cAMP accumulation” value (A2BAR [2]; HEK293-A2B cells, PMA 40 min) was “raised the basal cAMP level but not the Emax”. For the same compound, the Emax (A2BAR [2]; read-out: activation Emax (Emax of NECA = 100%)) was 84.7%, the ERK1/2 phosphorylation (ERK1/2) was > 300 % above baseline and the “effect of treatment on agonist [3H]NECA binding” value (A2BAR [4]; [13]) was “significantly increased agonist binding”. The “effect of treatment on antagonist [3H]DPCPX binding” value (A2BAR [4]; [13]) was “did not affect”, the “displacement of specific binding of [3H]NECA (25 nM)” value (A2BAR [4]; membranes from HEK293-A2B cells, 1 μM) was 1.6 ± 1.2% and the “inhibition of UTP-induced calcium response” value (H9C2 cells) was “completely inhibited”. For the same compound, the “induction of calcium mobilization” value (A2BAR [5]) was “did not induce calcium mobilization”, the “effect on NECA-induced intracellular calcium mobilization” value (A2BAR [5]; 1 μM pretreatment 20 min) was “inhibited” and the “cAMP accumulation versus NECA = 100%” value (A2BAR [6]) was 34.9 ± 7.7%. The “maximal cAMP level (10 μM NECA = 100%)” value (recombinant rat A2BAR) was 65.4 ± 8.0%, the Emax (A2BAR [7]; HEK293, read-out: Emax of cAMP accumulation (10 μM forskolin = 100%)) was 49.3 ± 4.6% and the “maximal agonist effect (10 μM NECA = 100%)” value (A2BAR [7]; HEK293 cells with recombinant human A2BAR expression, 0.3 μg/well) was 35.5 ± 5.0%. The “enhancement of the function of BAY (cAMP accumulation)” value (A2BAR [8]) was 37%, the Emax (A2BAR [9]) was 19.3 ± 3.1% and the “effect of pretreatment on forskolin-stimulated cAMP accumulation” value (adenylyl cyclase) was “did not inhibit or enhance”.
In the case of `CC(C)[C@@](C)(O)[C@@H]1CN(c2nc(-c3[nH]nc4ncccc34)c(F)cc2Cl)CCN1` [VTX-27], the “effect on PKC (PMA)-induced enhancement” value (A2BAR [1]; [10]) is given as “did not significantly inhibit”, the IC50 (PKCθ) is given as 0.08 nM and the IC50 (PKCδ) is given as 16 nM.
In the case of `Cn1cc(C2=C(c3cn(C4CCN(Cc5ccccn5)CC4)c4ccccc34)C(=O)NC2=O)c2ccccc21` [enzastaurin], the “effect on PKC (PMA)-induced enhancement” value (A2BAR [1]; [12]) is listed as “did not inhibit PMA-induced enhancement”, the IC50 (PKCβ) is listed as […] and the IC50 (PKCγ) is listed as […].
